94 compounds from ChEMBL document CHEMBL3507680, “University of Dundee, Gates Library screen for HepG2 cell viability” can be followed below.

This data set is described as follows: Human HepG2 cell viability assay in 384 well format. In kind it is toxicity, cell-based. Further details: dose 125 nL, time 70.5 hour; concentration not given beside the values. Conditions: HepG2 cells, read-out: Inhibition.

`Cc1cc2[nH]c(=O)c(=O)[nH]c2cc1S(=O)(=O)NC1CCC(C)CC1` (centres undefined): the cytotoxicity at 70.5 h is -5.16%.

On to `O=C1c2c(O)cc(O)cc2O[C@@H](c2ccc(O)cc2)[C@@H]1O`, for which the cytotoxicity at 70.5 h is -7.81%.

Turning to `COC(=O)[C@@H]1Cc2ncn(C)c2CN1S(=O)(=O)c1ccc(Cl)cc1`, the cytotoxicity at 70.5 h came out at 10.2%.

In the case of `CC(=O)N1CC[C@H]2CC(=O)N(C3CC3)CC[C@H]2C1`, the cytotoxicity at 70.5 h was 14.2%.

Consider `COc1ccc(CN2C[C@H](O)C[C@H]2c2nc(-c3ccccc3)no2)cc1`, for which the cytotoxicity at 70.5 h was 9.25%.

Regarding `CCN(CC)CC[C@H]1CN(C(=O)C2CCC2)CC[C@H]1CC(=O)O`, the cytotoxicity at 70.5 h came out at 5.37%.

For `Cc1ccc(-c2noc([C@@H]3C[C@H](NC(=O)CC(C)(C)C)CN3C)n2)cc1`, the cytotoxicity at 70.5 h was -2%.

Consider `Cc1noc([C@@H]2C[C@H](NC(=O)Nc3ccccc3)CN2C)n1`, for which the cytotoxicity at 70.5 h is -1.94%.

Take `CC(C)NC(=O)C[C@@H]1CCNC[C@@H]1Cc1cc(-c2ccccn2)on1`: the cytotoxicity at 70.5 h is -16.5%.

In the case of `COC(=O)[C@@H]1CN(S(=O)(=O)c2ccccc2)CCN1S(C)(=O)=O`, the cytotoxicity at 70.5 h was -7.6%.

As to `Cc1nn(-c2ccccn2)c(C)c1[C@@H]1C=C[C@@H](NC(=O)CCC(=O)O)C1`, the cytotoxicity at 70.5 h was -6.4%.

Turning to `N#Cc1ccc(CN2C[C@@H]3OCC(=O)N[C@@H]3C2)cc1`, the cytotoxicity at 70.5 h is -5.15%.

For `c1cc(-c2noc([C@@H]3Cc4nc[nH]c4CN3)n2)ccn1`, the cytotoxicity at 70.5 h came out at 1.06%.

On to `CC(C)N1C[C@@H](F)[C@@H](OCc2nc3ncccc3[nH]2)C1`, for which the cytotoxicity at 70.5 h is -0.523%.

For `Oc1cccc(-c2cc(CC3(N(CC4CC4)CC4CC4)COC3)no2)c1`, the cytotoxicity at 70.5 h was -6.61%.

Take `CC1(C)[C@H](Cc2cc(CO)on2)C[C@@H]1N(CC1CC1)CC1CC1`: the cytotoxicity at 70.5 h is 5.68%.

As to `COC(=O)[C@@H]1Cc2ncn(C)c2CN1S(=O)(=O)c1ccc(C)cc1`, the cytotoxicity at 70.5 h is -8.32%.

Regarding `CC(C)N1C[C@@H]2OCC(=O)N(Cc3ccccc3)[C@@H]2C1`, the cytotoxicity at 70.5 h was -10.2%.

Turning to `COc1ccc(-c2c[nH]c([C@@H]3COCCN3)n2)cc1`, the cytotoxicity at 70.5 h worked out at 1.65%.

Turning to `CN1C[C@H](O)C[C@H]1c1nc(-c2ccc(OC(F)(F)F)cc2)no1`, the cytotoxicity at 70.5 h is -6.54%.

Take `Cn1ccnc1CN1C[C@H]2CN(S(C)(=O)=O)CCN2C1=O`: the cytotoxicity at 70.5 h is -0.342%.

For `CC(C)c1noc([C@@H]2C[C@H](NS(=O)(=O)Cc3ccccc3)CN2C)n1`, the cytotoxicity at 70.5 h was -0.576%.

`CO[C@H]1COCCN(C(=O)c2ccc(C#N)cc2)C1`: the cytotoxicity at 70.5 h worked out at 9.9%.

`Cc1ccc(-c2cn3c(n2)CO[C@@H](CNCc2cnn(C)c2)C3)cc1`: the cytotoxicity at 70.5 h was determined as 6.98%.

Regarding `CC(=O)N1CC[C@H](c2nnc(Cc3c[nH]c4ccccc34)o2)C1`, the cytotoxicity at 70.5 h was -3.38%.

In the case of `c1ccc(CNC[C@H]2COCc3nc4cccnc4n32)cc1`, the cytotoxicity at 70.5 h was found to be 11.9%.

Regarding `CCNC(=O)N[C@H]1C[C@@H](Cc2cc(CN3CCCCC3)on2)C1(C)C`, the cytotoxicity at 70.5 h was -4.13%.

As for `FC(F)(F)c1ccc2nc([C@H]3CCN(C4CCOCC4)C3)[nH]c2c1`, the cytotoxicity at 70.5 h was -12.9%.

`Cc1nnc([C@H]2CCN(CCCc3ccccc3)C2)o1`: the cytotoxicity at 70.5 h was determined as 8.95%.

As for `c1cncc(O[C@H]2COCCN(CC3CC3)C2)c1`, the cytotoxicity at 70.5 h was determined as 0.0943%.

For `CC(C)Cc1cc(CC2(NCc3ccco3)COC2)no1`, the cytotoxicity at 70.5 h is -3.13%.

Turning to `COc1ccc(CNC2(Cc3cc(CC(C)C)on3)COC2)cc1`, the cytotoxicity at 70.5 h turned out to be 9.64%.

Turning to `COc1ccc(-c2noc([C@@H]3C[C@@H](O)CN3C3CCCCC3)n2)cc1`, the cytotoxicity at 70.5 h was -1.99%.

In the case of `CC1=C[C@@H](CNS(C)(=O)=O)[C@H](C(C)C)C[C@H]1CC(=O)NCCN(C)C`, the cytotoxicity at 70.5 h was determined as 1.17%.

As to `O=C(C1CC1)N1CC[C@H](c2nc3ccccc3o2)C1`, the cytotoxicity at 70.5 h is 5.84%.

For the compound `Cc1ccc(N2C(=O)N[C@@H]3CCN(C(=O)C4CCCC4)[C@@H]3C2=O)cc1`, the cytotoxicity at 70.5 h is -13.1%.

With `COc1ccc(CN2C[C@@H]3OCC(=O)N(Cc4nccn4C)[C@@H]3C2)cc1`, the cytotoxicity at 70.5 h is -3.1%.

Take `Cc1cc2c(C)cc(O)cc2c(=O)o1`: the cytotoxicity at 70.5 h is -14.8%.

As to `COc1ccc(NC(=O)Nc2c(O)c3ccccc3oc2=O)cc1`, the cytotoxicity at 70.5 h is -1.02%.

Turning to `CCOCc1nc(N2CCOCC2)sc1C(=O)NCCCc1ccco1`, the cytotoxicity at 70.5 h was 0.741%.

As to `CCN(CC)CCNCC1CCOC(C)(C)C1` (centres undefined), the cytotoxicity at 70.5 h was -5.74%.

As for `CC(C)NC(=O)COc1cccc(-c2nc(C(C)C)no2)c1`, the cytotoxicity at 70.5 h was found to be 20.9%.

In the case of `COC(=O)c1ccccc1NC(=O)c1c(C)cn(C)c1CC(=O)O`, the cytotoxicity at 70.5 h was 18.3%.

`Cc1cc2[nH]c(=O)c(=O)[nH]c2cc1S(=O)(=O)NC1CCCCC1`: the cytotoxicity at 70.5 h was -3.77%.

As to `COc1cccc(CNC(=O)CCC2=Nc3ccccc3S(=O)(=O)N2)c1`, the cytotoxicity at 70.5 h was -1.77%.

With `Cc1cccn2c(=O)cc(CSCC(=O)Nc3nnc(C(C)C)s3)nc12`, the cytotoxicity at 70.5 h came out at 1.52%.

In the case of `CCn1nc(Br)nc1Sc1ccccc1NC(C)=O`, the cytotoxicity at 70.5 h was -0.88%.

As for `Cc1ccn(CCC(=O)NC(C)Cc2ccco2)n1` (centres undefined), the cytotoxicity at 70.5 h was -6.56%.

As for `Cc1nc(N2CCN(C)CC2)ncc1C(=O)N1CCCCC1`, the cytotoxicity at 70.5 h was -0.181%.

Consider `CCN(CC)S(=O)(=O)c1ccc2c(c1)N(Cc1ccncc1)C(=O)CS2`, for which the cytotoxicity at 70.5 h was -3.41%.

In the case of `CCNC(=O)COc1cc(CC)c2c(C)nn(-c3ccc(C)cc3)c2n1`, the cytotoxicity at 70.5 h was -3.18%.

`CCOCc1nc(N2CCCC2)sc1C(=O)NCCC(=O)OCC`: the cytotoxicity at 70.5 h was -6%.

Turning to `CCOCCCNC(=O)C1(C)CCC(=O)N1c1cc(OC)ccc1OC` (centres undefined), the cytotoxicity at 70.5 h is -2.77%.

For `O=C1C[C@H]2[C@H](CCN2C(=O)c2cc[nH]n2)N1Cc1cccnc1`, the cytotoxicity at 70.5 h is -9.27%.

Turning to `CN(C)C(=O)N1CCC2(CC1)C(=O)N(CC1CCOC1)c1ccccc12` (centres undefined), the cytotoxicity at 70.5 h is -9.22%.

On to `Cc1csc2nc3n(c(=O)c12)CCN(C(=O)c1ccncc1)CC3`, for which the cytotoxicity at 70.5 h was -7.78%.

As for `Cc1ccc(=O)n(CC2(O)CCN(Cc3ccsc3)CC2)n1`, the cytotoxicity at 70.5 h was -10.6%.

`CS(=O)(=O)N1CCC(O)(Cn2c(C3CC3)nc3ccccc3c2=O)CC1`: the cytotoxicity at 70.5 h was -1.88%.

Consider `O=C(Cn1cccnc1=O)NC(Cc1cccs1)c1ccccn1` (centres undefined), for which the cytotoxicity at 70.5 h was -13.9%.

On to `CCN1CCN(c2ncc(-c3cc(C)no3)c(-c3ccoc3C)n2)CC1`, for which the cytotoxicity at 70.5 h is -2.3%.

Take `Cc1nccc(CN2CCC(c3nnsc3S(C)(=O)=O)CC2)n1`: the cytotoxicity at 70.5 h was -21.3%.

As for `Cc1cc(C)c2cc(CNCc3ccccc3)c3nn(C)c(=O)n3c2c1`, the cytotoxicity at 70.5 h is 3.71%.

Regarding `CCCN(C(=O)c1ccccn1)c1nc2c(s1)CCc1c-2cnn1C`, the cytotoxicity at 70.5 h was found to be 3.64%.

`c1cc(NC2CC3(CCN(Cc4cc[nH]n4)C3)C2)ncn1` (centres undefined): the cytotoxicity at 70.5 h is -16.2%.

On to `CN(c1ccncn1)C1CC2(CCN(C(=O)CCc3cccs3)C2)C1` (centres undefined), for which the cytotoxicity at 70.5 h was -10.3%.

As to `CN(c1ccncn1)C1CC2(CCN(C(=O)c3cccs3)C2)C1` (centres undefined), the cytotoxicity at 70.5 h was -16.4%.

As to `Cc1ncccc1O[C@H]1CCN(C(=O)c2cccs2)CC[C@@H]1O`, the cytotoxicity at 70.5 h is -14.1%.

For the compound `CN(C(=O)C1CCCCC1)[C@@H]1CCC[C@@H](N2CCOCC2)[C@@H]1O`, the cytotoxicity at 70.5 h was -11.9%.

On to `O=C(c1ccc(F)cc1F)N1C[C@@H](O)[C@H](N2CCOCC2)C1`, for which the cytotoxicity at 70.5 h was -2.76%.

For the compound `NCc1cn(-c2ccccc2C(=O)NCc2ccccc2)cn1`, the cytotoxicity at 70.5 h is -18.9%.

As for `Cc1nc(C(=O)N2CCC(Cc3cnc4[nH]ccc4c3)C2)co1` (centres undefined), the cytotoxicity at 70.5 h came to 18.9%.

Consider `COc1cccc(OCC2CCCN(C(C)=O)C2)c1` (centres undefined), for which the cytotoxicity at 70.5 h is -18.9%.

For the compound `CC(C)c1nccn1-c1cccc(C2CCCN(C3CCCC3)C2)n1` (centres undefined), the cytotoxicity at 70.5 h was -12.4%.

Regarding `COCCN1CCCC1c1nccnc1Nc1nc(C)cs1` (centres undefined), the cytotoxicity at 70.5 h was -21.9%.

Take `Cc1ncncc1C(=O)Nc1cnn(CC(=O)NC2CCCC2)c1`: the cytotoxicity at 70.5 h was -19.5%.

As for `Cc1ncccc1O[C@H]1CCN(C(=O)Cc2cccs2)CC[C@@H]1O`, the cytotoxicity at 70.5 h was -7.99%.

As for `Cc1cn[nH]c1C1CCCCN1C(=O)CCN1CCCCCC1` (centres undefined), the cytotoxicity at 70.5 h was -36.7%.

For `Cc1cc2c(=O)n3c(nc2s1)CCN(Cc1cnc(C(C)C)nc1)CC3`, the cytotoxicity at 70.5 h was -14.8%.

With `Cc1cc2cc(C(=O)N3CC[C@H](O)[C@]4(CCCO4)C3)ccc2o1`, the cytotoxicity at 70.5 h is -18.1%.

On to `CC(C)c1nccn1-c1cccc(C2CCCN2S(=O)(=O)N(C)C)n1` (centres undefined), for which the cytotoxicity at 70.5 h was found to be 0.791%.

Consider `COCC(=O)NC[C@@]1(COc2cnccn2)C[C@@H](O)[C@@H](O)C1`, for which the cytotoxicity at 70.5 h is 13.8%.

For `COCC(=O)NC[C@@]1(COc2cccnc2)C[C@@H](O)[C@@H](O)C1`, the cytotoxicity at 70.5 h amounted to 3.07%.

Regarding `CNC(=O)C(C)(C)N1CCC[C@H]1C(=O)NCCN(C)C`, the cytotoxicity at 70.5 h is -16.8%.

On to `O=C1CC2(CCCNC2)C(=O)N1Cc1cccc(F)c1` (centres undefined), for which the cytotoxicity at 70.5 h was -8.03%.

`OC[C@H]1CC[C@]2(CC1)CN(Cc1ccccc1F)Cc1ccccc1O2`: the cytotoxicity at 70.5 h is -3.44%.

For the compound `Cc1ncc(CN2Cc3ccccc3O[C@]3(CC[C@H](CO)CC3)C2)cn1`, the cytotoxicity at 70.5 h is -2.89%.

As to `Cc1cc(-c2cnn(CCNC(=O)c3cccnc3)c2C2CC2)on1`, the cytotoxicity at 70.5 h was -16.3%.

Consider `CCOc1ccccc1C(=O)N1CCCC1c1ncc2c(n1)CCNC2` (centres undefined), for which the cytotoxicity at 70.5 h worked out at 22.9%.

For `O=C(O)c1cc(NS(=O)(=O)c2ccc(Cl)s2)ccc1N1CCOCC1`, the cytotoxicity at 70.5 h was -2.78%.

As for `CC(=O)N1[C@H](CN(C)C)C[C@@H]2CN(C(=O)c3cncc(C)c3)CC[C@@H]21`, the cytotoxicity at 70.5 h is -10.6%.

`Cc1nc2cc(C3CCN(Cc4cccc(F)c4F)C3)nn2c(O)c1C` (centres undefined): the cytotoxicity at 70.5 h is -20.4%.

Turning to `COc1cccc(CN2CCC(c3cc(O)nc(C)n3)C2)c1` (centres undefined), the cytotoxicity at 70.5 h was -3.89%.

As to `CC1(C)CC(N(Cc2ccccc2)Cc2cccnc2)CC(C)(C)N1`, the cytotoxicity at 70.5 h is 30.7%.

Regarding `O=C(COc1ccccc1)N1C[C@@H](O)[C@H](N2CCCC2)C1`, the cytotoxicity at 70.5 h was -12.1%.
